Reference: BindingDB's records for PubMed 7996470 (University of Michigan, 1994)

Legend:
[1] = target: T1, Alpha-2C adrenergic receptor (Homo sapiens, UniProt P18825)
T1 sequence (P18825 whole entry): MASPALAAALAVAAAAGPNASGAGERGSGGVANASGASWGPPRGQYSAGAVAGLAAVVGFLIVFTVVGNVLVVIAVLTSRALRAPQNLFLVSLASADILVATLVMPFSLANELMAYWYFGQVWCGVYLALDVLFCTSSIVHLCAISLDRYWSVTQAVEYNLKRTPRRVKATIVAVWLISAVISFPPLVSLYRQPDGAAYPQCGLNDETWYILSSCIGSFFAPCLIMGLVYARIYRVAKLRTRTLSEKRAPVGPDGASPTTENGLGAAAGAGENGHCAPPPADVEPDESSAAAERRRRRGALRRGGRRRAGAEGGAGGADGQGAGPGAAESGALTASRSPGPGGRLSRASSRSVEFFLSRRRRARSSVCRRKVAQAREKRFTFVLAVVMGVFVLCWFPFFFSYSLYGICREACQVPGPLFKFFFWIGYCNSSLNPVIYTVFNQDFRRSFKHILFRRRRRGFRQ

[2] = target: T2, Alpha-2A adrenergic receptor (Homo sapiens, UniProt P08913)
T2 sequence (P08913 whole entry): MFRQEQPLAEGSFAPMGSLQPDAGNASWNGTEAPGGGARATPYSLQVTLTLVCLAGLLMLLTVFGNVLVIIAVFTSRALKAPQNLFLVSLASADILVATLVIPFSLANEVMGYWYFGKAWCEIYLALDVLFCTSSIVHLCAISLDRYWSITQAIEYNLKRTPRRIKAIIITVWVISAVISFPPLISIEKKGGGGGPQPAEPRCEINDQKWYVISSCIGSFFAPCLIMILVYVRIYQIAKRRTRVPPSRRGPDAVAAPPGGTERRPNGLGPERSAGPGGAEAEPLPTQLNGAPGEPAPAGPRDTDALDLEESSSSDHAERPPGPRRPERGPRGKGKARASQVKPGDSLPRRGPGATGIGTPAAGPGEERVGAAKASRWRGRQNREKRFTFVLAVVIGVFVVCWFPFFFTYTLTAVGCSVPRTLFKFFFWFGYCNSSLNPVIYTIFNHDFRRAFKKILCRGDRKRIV

Row | Compound | Ki [1] [nM] | Ki [2] [nM]
1 | COc1cc(N)c(Cl)cc1C(=O)NC1CC2CCC(C1)N2C (centres undefined) [4-amino-5-chloro-2-methoxy-N-(8-methyl-8-azabicyclo[3.2.1]octan-3-yl)benzamide] | 150 | –
2 | O=C1NCN(c2ccccc2)C12CCN(CC1COc3ccccc3O1)CC2 (centres undefined) [8-(2,3-Dihydro-benzo[1,4]dioxin-2-ylmethyl)-1-phenyl-1,3,8-triaza-spiro[4.5]decan-4-one] | 1.04 | 54.3
3 | CC1c2ccccc2CN1CC1=NCCN1 (centres undefined) [NSC_121850] | – | 5.68
4 | COc1ccccc1N1CCN(CCC2C(=O)c3ccccc3C(C)(C)C2=O)CC1 (centres undefined) [NSC_122211] | 31.8 | –
5 | COc1cccc(OC)c1OCCNCC1Oc2ccccc2OC1c1ccccc1 (centres undefined) [NSC_185453] | 3.18 | 14.6
6 | COC1(C2=NCCN2)COc2ccccc2O1 (centres undefined) [RX821002] | 1.78 | 0.62
